The values below are quoted from earlier work in PMC6602202, “Enteroendocrine peptides regulate feeding behavior via controlling intestinal contraction of the silkworm Bombyx mori” (PLoS ONE, 2019).

In one series the test system is gut. The note with it: Periplaneta americana; cited from earlier work. The source says:
(§1) AT-producing EEs (Fig 2C and 2D) and GSRYamide-producing EEs (Fig 2E and 2F) also have the potential to deliver secretory granules containing peptidyl factors to the hemocoel side through a cellular membrane. Those EEs have similar cellular morphology to EEs releasing other arthropod neuropeptide CCAP (Crustacean cardioactive peptide) observed in the American cockroac ...

The test system of series [1] is foregut of Lacanobia oleracea. The note with it: cited from earlier work.
Text: as §1

Series [2] concerns foregut of Helicoverpa armigera. The note with it: cited from earlier work.
Text: as §1

For series [3], the system named is hindgut of Leucophaea maderae. Particulars: cited from earlier work.
Text: as §1

Series [4] has as its system D. melanogaster. The note with it: cited from earlier work. The source says: Peptides having C-terminal RYamide sequences constitute a neuropeptide Y (NPY) family, which is conserved both in vertebrates and invertebrate.
In a further series the test system is B. mori larvae. The note with it: cited from earlier work. An excerpt: Among the feeding regulatory peptides in insects, several peptides are known as ‘brain-gut peptides’, which are expressed and produced in the brain and intestinal organs. […] These peptides may regulate not only the physiological functions related to digestion and intestinal lipid metabolisms but also the intestin ... || The myoinhibitory activities of AT and GSRYa-1 and -2 in the foregut (pharynx and esophagus) and hindgut (ileum) (Figs 5E, 5F and 6E) seem to be linked to the delay in feeding initiation in B. mori larvae (Figs 1D and 6B).

For the next series, the system named is Schistocerca. gregaria. The note with it: cited from earlier work.
In series [5] the test system is D. melanogaster. Particulars: cited from earlier work. An excerpt: The myoinhibitory activities of AT and GSRYa-1 and -2 in the foregut (pharynx and esophagus) and hindgut (ileum) (Figs 5E, 5F and 6E) seem to be linked to the delay in feeding initiation in B. mori larvae (Figs 1D and 6B).
This is another data set of the same source.

For the substance Crustacean cardioactive peptide [CCAP], the “effect on gut contraction” value in the series on gut is “multiple roles, including gut contraction”.
In the case of allatostatin [AST, reference compound], the “effect on spontaneous contraction of the foregut, L. oleracea” value in series [1] is recorded as “regulate spontaneous contraction of the foregut”. Moreover, in series [2], the “effect on spontaneous contraction of the foregut, H. armigera” value is listed as “regulate spontaneous contraction of the foregut”.
Turning to myosuppressin (leukomyosuppressin), the “effect on spontaneous contraction of the foregut, L. oleracea” value in series [1] is “regulates spontaneous contraction of the foregut”. For the same substance, the “effect on spontaneous contraction of the hindgut, L. maderae” value in series [3] is “regulates spontaneous contraction of the foregut of Lacanobia oleracea [66] and the hindgut of Leucophaea maderae”.
Turning to neuropeptide F [NPF], the “effect on larval feeding behavior” value in the series with D. melanogaster [4] is on record as “regulate larval feeding behavior”.
As to short neuropeptide F (sNPF) -2 [sNPF-2], the “effect on feeding initiation, peptides” value with B. mori larvae was “feeding acceleratory effects that can shorten the latency to the initiation of feeding”.
With short neuropeptide F [sNPF], the “effect on food intake” value with Schistocerca. gregaria is listed as “an inhibitory effect on food intake”. Further, the “effect on feeding initiation, peptides” value in the series with B. mori larvae is given as “feeding acceleratory effect”. Also, the “effect on food intake and body weight” value with D. melanogaster [5] is “stimulates food intake and body weight gain”.
As for “tachykinin-related peptides [B. mori TRPs]”, the “effect on feeding initiation, peptides” value with B. mori larvae is given as “feeding acceleratory effects that can shorten the latency to the initiation of feeding”.
